{"source": "patent US12655116B2", "about": "“Substituted isophthalic acid diamides” (Bayer Aktiengesellschaft, priority 2020, dated 2026)", "key": {"[1]": {"tested_on": "DIGSA", "assay": "Pre-emergence herbicidal action against DIGSA", "type": "in vivo, Digitaria sanguinalis", "summary_of_the_method": "(§1)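 Herbicidal effect was assessed 3 weeks after treatment by visual comparison with untreated controls, 100% denoting dead plants. Aqueous WP or EC preparations had been applied at 600 to 800 l/ha with 0.2% wetting agent to the soil covering freshly sown seeds.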"}, "[2]": {"tested_on": "ALOMY", "assay": "Post-emergence herbicidal action against ALOMY", "type": "in vivo, Alopecurus myosuroides", "conditions": "visual assessment about 3 weeks after treatment vs untreated controls", "summary_of_the_method": "(§2)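 Post-emergence greenhouse test; one-leaf stage, 2–3 wk post-sowing, sandy loam. Foliar spray of WP/EC in water, 600–800 l/ha, +0.2% wetting agent. Visual % action at ~3 wk vs untreated (100% = plants dead).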"}, "[3]": {"tested_on": "MATIN", "assay": "Pre-emergence herbicidal action against MATIN", "type": "in vivo, Matricaria inodora", "summary_of_the_method": "as §1"}, "[4]": {"tested_on": "ECHCG", "assay": "Post-emergence herbicidal action against ECHCG", "type": "in vivo, Echinochloa crus-galli", "summary_of_the_method": "as §2"}, "[5]": {"tested_on": "AVEFA", "assay": "Pre-emergence herbicidal action against AVEFA", "type": "in vivo, Avena fatua", "conditions": "for Pre-emergence action against AVEFA in %: 80 g/ha", "summary_of_the_method": "as §1"}, "[6]": {"tested_on": "SETVI", "assay": "Pre-emergence herbicidal action against SETVI", "type": "in vivo, Setaria viridis", "summary_of_the_method": "as §1"}, "[7]": {"tested_on": "VIOTR", "assay": "Post-emergence herbicidal action against VIOTR", "type": "in vivo, Viola tricolor", "summary_of_the_method": "as §2"}, "[8]": {"tested_on": "VIOTR", "assay": "Pre-emergence herbicidal action against VIOTR", "type": "in vivo, Viola tricolor", "summary_of_the_method": "as §1"}, "[9]": {"tested_on": "LOLRI", "assay": "Pre-emergence herbicidal action against LOLRI", "type": "in vivo, Lolium rigidum", "excerpt": "Seeds of monocotyledonous and dicotyledonous weed plants and crop plants are laid out in sandy loam soil in wood-fiber pots and covered with soil. The compounds of the invention, formulated in the form of wettable powders (WP) or as emulsion concentrates (EC), are then applied to the surface of the covering soil in the form of an aqueous suspension or emulsion at a water application rate equivalent to 600 to 800 l/ha, with addition of 0.2% wetting agent. After the treatment, the pots are placed in a greenhouse and kept under good growth conditions for the trial plants. The damage to the test plants is scored visually after a test period of 3 weeks by comparison with untreated controls (herbicidal activity in percent (%): 100% activity=the plants have died, 0% activity=like control plants). […] The tables below illustrate, in an illustrative manner, the post-emergence herbicidal action of the compounds of the invention, the herbicidal activity being stated in percent."}, "[10]": {"tested_on": "SETVI", "assay": "Post-emergence herbicidal action against SETVI", "type": "in vivo, Setaria viridis", "summary_of_the_method": "as §2"}, "[11]": {"tested_on": "ECHCG", "assay": "Pre-emergence herbicidal action against ECHCG", "type": "in vivo, Echinochloa crus-galli", "summary_of_the_method": "as §1"}, "[12]": {"tested_on": "PHBPU", "assay": "Pre-emergence herbicidal action against PHBPU", "type": "in vivo, Pharbitis purpurea", "conditions": "dosage 80 g/ha", "summary_of_the_method": "as §1"}, "[13]": {"tested_on": "ALOMY", "assay": "Pre-emergence herbicidal action against ALOMY", "type": "in vivo, Alopecurus myosuroides", "conditions": "for Pre-emergence action against ALOMY (herbicidal activity): 80 g/ha, scored visually after 3 weeks vs untreated controls (100% = plants have died, 0% = like control plants)", "summary_of_the_method": "as §1"}, "[14]": {"tested_on": "ABUTH", "assay": "Pre-emergence herbicidal action against ABUTH", "type": "in vivo, Abutilon theophrasti", "conditions": "for Pre-emergence action against ABUTH (herbicidal activity): 80 g/ha, scored visually after 3 weeks vs untreated controls (100% = plants have died, 0% = like control plants); for Pre-emergence action against ABUTH (herbicidal activity in percent): dosage 20 g/ha, scored visually after 3 weeks vs untreated controls, 100% = plants have died, 0% = like control plants", "summary_of_the_method": "as §1"}, "[15]": {"tested_on": "AMARE", "assay": "Pre-emergence herbicidal action against AMARE", "type": "in vivo, Amaranthus retroflexus", "summary_of_the_method": "as §1"}, "[16]": {"tested_on": "ABUTH", "assay": "Post-emergence herbicidal action against ABUTH", "type": "in vivo, Abutilon theophrasti", "conditions": "visual assessment about 3 weeks after treatment vs untreated controls", "summary_of_the_method": "as §2"}, "[17]": {"tested_on": "PHBPU", "assay": "Post-emergence herbicidal action against PHBPU", "type": "in vivo, Pharbitis purpurea", "summary_of_the_method": "as §2"}, "[18]": {"tested_on": "DIGSA", "assay": "Post-emergence herbicidal action against DIGSA", "type": "in vivo, Digitaria sanguinalis", "conditions": "20 g/ha", "summary_of_the_method": "as §2"}, "[19]": {"tested_on": "MATIN", "assay": "Post-emergence herbicidal action against MATIN", "type": "in vivo, Matricaria inodora", "summary_of_the_method": "as §2"}, "[20]": {"tested_on": "VERPE", "assay": "Pre-emergence herbicidal action against VERPE", "type": "in vivo, Veronica persica", "conditions": "dosage 80 g/ha", "summary_of_the_method": "as §1"}, "[21]": {"tested_on": "AMARE", "assay": "Post-emergence herbicidal action against AMARE", "type": "in vivo, Amaranthus retroflexus", "conditions": "20 g/ha, visual assessment about 3 weeks after treatment, 100% = plants have died, 0% = like control plants", "summary_of_the_method": "as §2"}, "[22]": {"conditions": "20 g/ha, scored visually after 3 weeks, 100% = plants have died, 0% = like control plants"}, "[23]": {"conditions": "80 g/ha, scored visually after 3 weeks vs untreated controls (100% = plants have died, 0% = like control plants)"}}, "data": [{"smiles": "Cn1nnnc1NC(=O)c1ccc(Br)c(C(=O)NCC(F)F)c1Cl", "note": "[Example 1-182]", "values": [{"measurement": "Pre-emergence action against DIGSA in %", "setting": "[1]; dosage 20 g/ha", "value": 100, "unit": "%"}, {"measurement": "Pre-emergence action against DIGSA in %", "setting": "[1]; dosage 80 g/ha", "value": 100, "unit": "%"}, {"measurement": "Post-emergence action against ALOMY in %", "setting": "[2]; dosage 5 g/ha", "value": 90, "unit": "%"}, {"measurement": "Post-emergence action against ALOMY in %", "setting": "[2]; dosage 20 g/ha", "value": 100, "unit": "%"}, {"measurement": "Pre-emergence action against MATIN in %", "setting": "[3]; dosage 20 g/ha", "value": 90, "unit": "%"}, {"measurement": "Pre-emergence action against MATIN in %", "setting": "[3]; dosage 80 g/ha", "value": 100, "unit": "%"}, {"measurement": "Post-emergence action against ECHCG in %", "setting": "[4]; dosage 20 g/ha", "value": 80, "unit": "%"}, {"measurement": "Pre-emergence action against AVEFA in %", "setting": "[5]", "value": 90, "unit": "%"}, {"measurement": "Pre-emergence action against SETVI in %", "setting": "[6]; dosage 20 g/ha", "value": 100, "unit": "%"}, {"measurement": "Pre-emergence action against SETVI in %", "setting": "[6]; dosage 80 g/ha", "value": 100, "unit": "%"}, {"measurement": "Post-emergence action against VIOTR in %", "setting": "[7]; 5 g/ha", "value": 100, "unit": "%"}, {"measurement": "Post-emergence action against VIOTR in %", "setting": "[7]; 20 g/ha", "value": 100, "unit": "%"}, {"measurement": "Pre-emergence action against VIOTR in %", "setting": "[8]; dosage 20 g/ha", "value": 90, "unit": "%"}, {"measurement": "Pre-emergence action against VIOTR in %", "setting": "[8]; dosage 80 g/ha", "value": 100, "unit": "%"}, {"measurement": "Pre-emergence action against LOLRI in %", "setting": "[9]; 80 g/ha", "value": 80, "unit": "%"}, {"measurement": "Post-emergence action against SETVI in %", "setting": "[10]; dosage 5 g/ha", "value": 90, "unit": "%"}, {"measurement": "Post-emergence action against SETVI in %", "setting": "[10]; dosage 20 g/ha", "value": 100, "unit": "%"}, {"measurement": "Pre-emergence action against ECHCG in %", "setting": "[11]; 80 g/ha", "value": 100, "unit": "%"}, {"measurement": "Pre-emergence action against PHBPU in %", "setting": "[12]", "value": 90, "unit": "%"}, {"measurement": "Pre-emergence action against ALOMY", "setting": "[13]; [22]", "value": 80, "unit": "%"}, {"measurement": "Pre-emergence action against ALOMY (herbicidal activity)", "setting": "[13]", "value": 100, "unit": "%"}, {"measurement": "Pre-emergence action against ABUTH (herbicidal activity)", "setting": "[14]", "value": 100, "unit": "%"}, {"measurement": "Pre-emergence action against ABUTH (herbicidal activity in percent)", "setting": "[14]", "value": 100, "unit": "%"}, {"measurement": "Pre-emergence action against AMARE in %", "setting": "[15]; 20 g/ha, scored visually after 3 weeks vs untreated controls, 100% = plants have died, 0% = like control plants", "value": 100, "unit": "%"}, {"measurement": "Pre-emergence action against AMARE in %", "setting": "[15]; [23]", "value": 100, "unit": "%"}]}, {"smiles": "Cn1nnnc1NC(=O)c1ccc(C(F)F)c(C(=O)NC2CCC2)c1Cl", "note": "[Example 1-164]", "values": [{"measurement": "Post-emergence action against ABUTH in %", "setting": "[16]; dosage 5 g/ha", "value": 80, "unit": "%"}, {"measurement": "Post-emergence action against ABUTH in %", "setting": "[16]; dosage 20 g/ha", "value": 80, "unit": "%"}, {"measurement": "Pre-emergence action against DIGSA in %", "setting": "[1]; dosage 80 g/ha", "value": 80, "unit": "%"}, {"measurement": "Pre-emergence action against MATIN in %", "setting": "[3]; dosage 80 g/ha", "value": 100, "unit": "%"}, {"measurement": "Post-emergence action against PHBPU in %", "setting": "[17]; dosage 5 g/ha", "value": 90, "unit": "%"}, {"measurement": "Post-emergence action against PHBPU in %", "setting": "[17]; dosage 20 g/ha", "value": 90, "unit": "%"}, {"measurement": "Post-emergence action against ECHCG in %", "setting": "[4]; dosage 5 g/ha", "value": 80, "unit": "%"}, {"measurement": "Post-emergence action against ECHCG in %", "setting": "[4]; dosage 20 g/ha", "value": 90, "unit": "%"}, {"measurement": "Pre-emergence action against AVEFA", "setting": "[5]; [22]", "value": 100, "unit": "%"}, {"measurement": "Pre-emergence action against AVEFA in %", "setting": "[5]", "value": 100, "unit": "%"}, {"measurement": "Post-emergence action against DIGSA", "setting": "[18]", "value": 80, "unit": "%"}, {"measurement": "Pre-emergence action against LOLRI in %", "setting": "[9]; 20 g/ha", "value": 100, "unit": "%"}, {"measurement": "Pre-emergence action against LOLRI in %", "setting": "[9]; 80 g/ha", "value": 100, "unit": "%"}, {"measurement": "Post-emergence action against MATIN in %", "setting": "[19]; dosage 5 g/ha", "value": 80, "unit": "%"}, {"measurement": "Post-emergence action against MATIN in %", "setting": "[19]; dosage 20 g/ha", "value": 80, "unit": "%"}, {"measurement": "Pre-emergence action against VERPE in %", "setting": "[20]", "value": 90, "unit": "%"}, {"measurement": "Pre-emergence action against ECHCG in %", "setting": "[11]; 20 g/ha", "value": 100, "unit": "%"}, {"measurement": "Pre-emergence action against ECHCG in %", "setting": "[11]; 80 g/ha", "value": 100, "unit": "%"}, {"measurement": "Pre-emergence action against PHBPU in %", "setting": "[12]", "value": 100, "unit": "%"}, {"measurement": "Pre-emergence action against ALOMY (herbicidal activity)", "setting": "[13]", "value": 100, "unit": "%"}, {"measurement": "Pre-emergence action against ABUTH (herbicidal activity)", "setting": "[14]", "value": 80, "unit": "%"}, {"measurement": "Pre-emergence action against ABUTH (herbicidal activity in percent)", "setting": "[14]", "value": 80, "unit": "%"}, {"measurement": "Pre-emergence action against AMARE in %", "setting": "[15]; [23]", "value": 100, "unit": "%"}, {"measurement": "Post-emergence action at 20 g/ha against AMARE in %", "setting": "[21]", "value": 90, "unit": "%"}]}]}
